# From patent US9790228B2, “Heterocyclic kinase inhibitors” (Intellikine LLC, priority 2008, dated 2017)
# Legend:
# [1] = control compound, 5 μM; cited from earlier work
# [2] = target: p110γ (Homo sapiens (Human), UniProt P48736); assay: PI3K γ inhibition assay (TLC lipid kinase or HTRF); type: biochemical
# Method in brief: (§1)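 IC50 from TLC lipid kinase assay (25 mM HEPES pH 7.4, 10 mM MgCl2, 100 μg/ml phosphatidylinositol, 10 or 100 μM γ-32P-ATP, 5 min RT, phosphorimager) at 10–12 two-fold dilutions, or HTRF (10 μM PIP2, 10 μM ATP, 1 h RT) measuring PIP3 by TR-FRET; 2% DMSO final.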
# [3] = target: p110δ/p85α (Homo sapiens (Human), UniProt O00329); assay: PI3K δ inhibition assay (TLC lipid kinase or HTRF); type: biochemical
# Chain of p110δ/p85α (O00329 whole entry): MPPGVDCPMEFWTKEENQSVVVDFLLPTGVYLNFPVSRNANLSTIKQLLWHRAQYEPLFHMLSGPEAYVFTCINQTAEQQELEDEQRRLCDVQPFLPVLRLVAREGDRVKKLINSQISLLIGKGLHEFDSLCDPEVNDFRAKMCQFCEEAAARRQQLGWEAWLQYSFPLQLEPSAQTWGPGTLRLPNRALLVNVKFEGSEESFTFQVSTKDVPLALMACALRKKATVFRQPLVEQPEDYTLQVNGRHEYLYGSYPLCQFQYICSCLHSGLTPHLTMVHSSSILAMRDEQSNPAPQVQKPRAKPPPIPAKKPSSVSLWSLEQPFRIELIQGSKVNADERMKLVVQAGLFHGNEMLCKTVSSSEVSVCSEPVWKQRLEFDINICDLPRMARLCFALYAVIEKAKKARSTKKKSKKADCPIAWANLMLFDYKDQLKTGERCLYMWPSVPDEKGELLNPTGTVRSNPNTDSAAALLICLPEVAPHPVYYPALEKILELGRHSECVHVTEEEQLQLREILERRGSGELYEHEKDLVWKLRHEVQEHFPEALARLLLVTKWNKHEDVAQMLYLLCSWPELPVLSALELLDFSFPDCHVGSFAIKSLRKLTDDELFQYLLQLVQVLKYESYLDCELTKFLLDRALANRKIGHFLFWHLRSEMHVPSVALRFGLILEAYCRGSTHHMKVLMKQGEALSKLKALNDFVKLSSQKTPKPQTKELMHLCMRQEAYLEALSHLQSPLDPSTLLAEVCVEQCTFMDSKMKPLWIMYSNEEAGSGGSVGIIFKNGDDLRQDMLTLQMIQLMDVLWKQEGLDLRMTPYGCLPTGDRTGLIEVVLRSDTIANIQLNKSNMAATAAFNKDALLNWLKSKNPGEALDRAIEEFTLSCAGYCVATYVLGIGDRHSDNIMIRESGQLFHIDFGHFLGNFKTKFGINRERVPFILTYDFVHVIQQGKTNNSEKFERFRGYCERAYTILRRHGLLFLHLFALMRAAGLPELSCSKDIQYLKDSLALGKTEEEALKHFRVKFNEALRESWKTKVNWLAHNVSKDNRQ
# Chain of p110δ/p85α (P27986 whole entry partner): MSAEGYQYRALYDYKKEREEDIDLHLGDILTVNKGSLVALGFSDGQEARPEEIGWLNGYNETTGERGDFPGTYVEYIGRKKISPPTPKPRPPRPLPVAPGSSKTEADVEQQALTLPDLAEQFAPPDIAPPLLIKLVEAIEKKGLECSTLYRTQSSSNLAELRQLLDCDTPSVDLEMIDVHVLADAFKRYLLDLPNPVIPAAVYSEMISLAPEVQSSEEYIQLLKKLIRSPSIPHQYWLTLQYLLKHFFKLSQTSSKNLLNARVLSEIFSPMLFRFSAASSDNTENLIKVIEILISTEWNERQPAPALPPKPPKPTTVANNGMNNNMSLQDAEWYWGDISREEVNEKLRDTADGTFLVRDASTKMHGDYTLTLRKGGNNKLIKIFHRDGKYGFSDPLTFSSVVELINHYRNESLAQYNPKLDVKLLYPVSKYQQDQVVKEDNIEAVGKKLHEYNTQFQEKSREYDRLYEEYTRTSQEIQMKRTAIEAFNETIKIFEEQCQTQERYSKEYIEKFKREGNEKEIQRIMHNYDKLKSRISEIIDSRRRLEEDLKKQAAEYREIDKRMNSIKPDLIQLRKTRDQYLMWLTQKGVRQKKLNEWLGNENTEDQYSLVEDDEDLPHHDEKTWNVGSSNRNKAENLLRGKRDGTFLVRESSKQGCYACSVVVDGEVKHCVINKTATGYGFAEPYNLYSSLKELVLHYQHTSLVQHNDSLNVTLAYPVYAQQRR
# Method in brief: as §1
# [4] = tested on: Balb/c splenic B cells; assay: B cell activation and proliferation assay (Alamar Blue); type: cell-based, mouse; conditions: Mus musculus, B-cell
# Method in brief: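 Purified Balb/c splenic B cells, 50,000/well, pretreated with compound 30 min (0.2% DMSO), then stimulated with 10 ug/ml LPS or 5 ug/ml anti-IgM F(ab′)2 plus 2 ng/ml IL4 (cocktail concentrations) for 72 h at 37 °C. Alamar Blue 5 h, fluorescence 560/590 nm; IC50/EC50 calculated.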
# [5] = target: p110α/p85α (Homo sapiens (Human), UniProt P42336); assay: PI3K α inhibition assay (TLC lipid kinase or HTRF); type: biochemical
# Chain of p110α/p85α (P42336 whole entry): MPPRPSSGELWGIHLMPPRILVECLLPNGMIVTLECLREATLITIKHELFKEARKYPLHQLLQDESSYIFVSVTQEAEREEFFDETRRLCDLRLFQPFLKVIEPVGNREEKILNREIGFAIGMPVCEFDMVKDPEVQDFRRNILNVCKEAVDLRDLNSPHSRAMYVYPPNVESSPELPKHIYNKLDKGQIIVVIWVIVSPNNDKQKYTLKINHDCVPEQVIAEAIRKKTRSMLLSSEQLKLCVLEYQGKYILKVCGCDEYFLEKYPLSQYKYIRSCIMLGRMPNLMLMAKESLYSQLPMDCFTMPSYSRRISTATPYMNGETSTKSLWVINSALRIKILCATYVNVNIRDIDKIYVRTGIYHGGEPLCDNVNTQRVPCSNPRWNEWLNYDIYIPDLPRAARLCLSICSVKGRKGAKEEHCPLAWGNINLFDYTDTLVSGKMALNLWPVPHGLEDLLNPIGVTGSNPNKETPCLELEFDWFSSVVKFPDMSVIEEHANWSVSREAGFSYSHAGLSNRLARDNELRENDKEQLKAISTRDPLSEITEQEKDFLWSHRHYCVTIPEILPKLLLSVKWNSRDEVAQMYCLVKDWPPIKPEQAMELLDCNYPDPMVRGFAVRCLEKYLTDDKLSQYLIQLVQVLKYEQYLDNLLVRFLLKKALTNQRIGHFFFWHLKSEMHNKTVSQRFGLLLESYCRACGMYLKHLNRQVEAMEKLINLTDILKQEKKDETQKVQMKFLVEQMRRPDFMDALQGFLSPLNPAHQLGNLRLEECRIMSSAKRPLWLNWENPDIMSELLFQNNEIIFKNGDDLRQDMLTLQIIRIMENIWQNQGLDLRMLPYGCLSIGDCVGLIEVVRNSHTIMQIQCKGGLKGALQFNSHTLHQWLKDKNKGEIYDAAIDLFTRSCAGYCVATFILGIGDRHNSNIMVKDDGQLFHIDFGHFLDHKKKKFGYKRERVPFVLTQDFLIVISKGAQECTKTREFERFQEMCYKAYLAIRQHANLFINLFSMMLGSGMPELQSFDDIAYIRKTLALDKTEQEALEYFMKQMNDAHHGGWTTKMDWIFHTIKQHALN
# Chain of p110α/p85α (P27986 whole entry partner): as the sequence (P27986 whole entry partner) above
# Method in brief: as §1
# [6] = target: p110β/p85α (Homo sapiens, UniProt P42338); assay: PI3K β inhibition assay (TLC lipid kinase or HTRF); type: biochemical; conditions: read-out: PI3K β IC50
# Chain of p110β/p85α (P42338 whole entry, looked up): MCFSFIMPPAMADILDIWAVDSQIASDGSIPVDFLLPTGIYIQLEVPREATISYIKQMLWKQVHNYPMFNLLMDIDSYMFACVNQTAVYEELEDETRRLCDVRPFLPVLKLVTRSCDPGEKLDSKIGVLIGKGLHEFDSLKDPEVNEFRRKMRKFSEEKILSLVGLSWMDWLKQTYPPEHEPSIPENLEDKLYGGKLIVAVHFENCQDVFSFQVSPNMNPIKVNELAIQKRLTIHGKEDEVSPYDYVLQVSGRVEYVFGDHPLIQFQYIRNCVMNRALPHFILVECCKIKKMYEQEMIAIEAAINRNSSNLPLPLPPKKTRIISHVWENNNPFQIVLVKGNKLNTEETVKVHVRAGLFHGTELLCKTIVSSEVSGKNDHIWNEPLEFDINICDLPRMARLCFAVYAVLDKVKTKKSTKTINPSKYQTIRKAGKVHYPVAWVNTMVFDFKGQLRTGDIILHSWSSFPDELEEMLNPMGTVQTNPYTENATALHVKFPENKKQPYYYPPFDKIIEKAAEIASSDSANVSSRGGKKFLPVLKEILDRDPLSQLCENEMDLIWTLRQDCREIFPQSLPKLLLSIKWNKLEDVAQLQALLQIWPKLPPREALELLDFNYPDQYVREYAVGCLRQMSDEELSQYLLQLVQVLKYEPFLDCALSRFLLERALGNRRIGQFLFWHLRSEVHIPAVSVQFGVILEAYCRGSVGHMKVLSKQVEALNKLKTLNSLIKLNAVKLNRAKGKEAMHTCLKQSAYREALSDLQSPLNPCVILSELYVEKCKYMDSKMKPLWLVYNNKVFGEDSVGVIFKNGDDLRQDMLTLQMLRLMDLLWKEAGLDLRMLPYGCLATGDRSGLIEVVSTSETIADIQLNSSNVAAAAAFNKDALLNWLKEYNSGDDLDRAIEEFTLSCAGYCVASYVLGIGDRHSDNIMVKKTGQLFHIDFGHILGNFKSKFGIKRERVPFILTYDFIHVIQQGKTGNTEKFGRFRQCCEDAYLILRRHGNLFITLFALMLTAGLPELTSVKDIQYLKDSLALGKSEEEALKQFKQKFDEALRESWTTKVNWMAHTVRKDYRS
# Method in brief: as §1
# Chain of p110γ (P48736 whole entry): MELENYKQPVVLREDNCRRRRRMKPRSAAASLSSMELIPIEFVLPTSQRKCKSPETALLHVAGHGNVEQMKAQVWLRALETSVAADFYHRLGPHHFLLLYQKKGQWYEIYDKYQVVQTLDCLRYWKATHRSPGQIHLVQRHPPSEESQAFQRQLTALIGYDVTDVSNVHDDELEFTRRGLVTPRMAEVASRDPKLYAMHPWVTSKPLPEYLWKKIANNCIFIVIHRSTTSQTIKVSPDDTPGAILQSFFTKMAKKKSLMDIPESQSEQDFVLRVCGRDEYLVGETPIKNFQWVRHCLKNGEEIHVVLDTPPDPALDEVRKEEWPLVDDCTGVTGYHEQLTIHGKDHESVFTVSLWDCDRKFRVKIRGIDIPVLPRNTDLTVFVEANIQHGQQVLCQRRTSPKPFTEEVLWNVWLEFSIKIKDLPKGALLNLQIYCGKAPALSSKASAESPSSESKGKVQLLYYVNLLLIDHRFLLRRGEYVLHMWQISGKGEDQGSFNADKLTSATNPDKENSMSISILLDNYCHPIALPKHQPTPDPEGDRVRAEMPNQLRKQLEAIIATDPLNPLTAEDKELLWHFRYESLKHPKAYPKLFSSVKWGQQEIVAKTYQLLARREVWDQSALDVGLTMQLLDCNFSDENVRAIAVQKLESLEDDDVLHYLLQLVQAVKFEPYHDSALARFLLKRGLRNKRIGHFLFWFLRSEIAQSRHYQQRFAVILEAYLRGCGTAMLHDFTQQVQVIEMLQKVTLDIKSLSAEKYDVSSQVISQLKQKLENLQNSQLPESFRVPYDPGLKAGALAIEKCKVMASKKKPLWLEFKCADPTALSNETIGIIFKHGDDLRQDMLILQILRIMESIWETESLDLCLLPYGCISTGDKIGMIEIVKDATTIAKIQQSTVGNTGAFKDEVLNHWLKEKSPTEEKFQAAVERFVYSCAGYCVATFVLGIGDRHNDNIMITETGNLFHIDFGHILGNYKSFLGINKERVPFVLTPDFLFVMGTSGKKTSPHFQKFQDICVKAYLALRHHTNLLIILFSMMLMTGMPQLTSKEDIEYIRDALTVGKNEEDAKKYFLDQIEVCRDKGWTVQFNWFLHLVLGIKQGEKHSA
compound,measurement,setting,value
CCCOc1cc(N)ccc1C(=O)OCCN(CC)CC [propoxycaine],plasma stability,[1],low
CC(C)[N+](C)(CCOC(=O)C1c2ccccc2Oc2ccccc21)C(C)C [propantheline],plasma stability,[1],intermediate
Nc1ncnc2ccc(-c3nn(Cc4cc5ccccc5nc4-c4ccccc4)c4ncnc(N)c34)cc12 [Compound 146],IC50,[2],< 100 nM
same,IC50,[3],< 100 nM
same,EC50,[4],100 to 1000 nM
same,IC50,[5],> 1000 nM
same,IC50,[6],> 1000 nM
CC(=O)Nc1nc2ccc(-c3nn(Cc4cc5ccccc5nc4-n4cnc(C)c4)c4ncnc(N)c34)cc2s1 [Compound 171],IC50,[2],< 100 nM
same,IC50,[3],< 100 nM
same,EC50,[4],< 100 nM
same,IC50,[5],100 to 1000 nM
same,IC50,[6],> 1000 nM
Nc1ncnc2c1c(-c1cn[nH]c1)nn2Cc1cc2ccccc2nc1-c1ccccc1 [Compound 180],IC50,[2],100 to 1000 nM
same,IC50,[3],< 100 nM
same,EC50,[4],100 to 1000 nM
same,IC50,[5],> 1000 nM
same,IC50,[6],> 1000 nM
CC(=O)Nc1nc2ccc(-c3nn(Cc4cc5ccccc5nc4-c4ccccc4)c4ncnc(N)c34)cc2s1 [Compound 92],IC50,[2],< 100 nM
same,IC50,[3],< 100 nM
same,EC50,[4],< 100 nM
same,IC50,[5],> 1000 nM
same,IC50,[6],> 1000 nM
Nc1ncnc2c1c(-c1cc(O)cc(F)c1)nn2Cc1cc2ccccc2nc1N1CCOCC1 [Compound 63],IC50,[2],100 to 1000 nM
same,IC50,[3],< 100 nM
same,EC50,[4],< 100 nM
same,IC50,[5],> 1000 nM
same,IC50,[6],> 1000 nM
Nc1ccc2cc(-c3nn(Cc4cc5ccccc5nc4-c4ccccc4)c4ncnc(N)c34)ccc2n1 [Compound 144],IC50,[2],< 100 nM
same,IC50,[3],< 100 nM
same,EC50,[4],< 100 nM
same,IC50,[5],100 to 1000 nM
same,IC50,[6],> 1000 nM
Nc1nc2ccc(-c3nn(Cc4cc5ccccc5nc4-c4ccccc4F)c4ncnc(N)c34)cc2s1 [Compound 85],IC50,[2],< 100 nM
same,IC50,[3],< 100 nM
same,EC50,[4],< 100 nM
same,IC50,[5],100 to 1000 nM
same,IC50,[6],> 1000 nM
Nc1ncc2cc(-c3nn(Cc4cc5ccccc5nc4-c4ccccc4)c4ncnc(N)c34)ccc2n1 [Compound 143],IC50,[2],< 100 nM
same,IC50,[3],< 100 nM
same,EC50,[4],< 100 nM
same,IC50,[5],100 to 1000 nM
same,IC50,[6],> 1000 nM
CC(c1cc2ccccc2nc1N1CCN(C)CC1)n1nc(-c2cc(O)cc(F)c2)c2c(N)ncnc21 (centres unmarked) [Compound 73],IC50,[2],> 1000 nM
same,IC50,[3],< 100 nM
same,EC50,[4],< 100 nM
same,IC50,[5],> 1000 nM
same,IC50,[6],< 100 nM
Nc1nc2cc(-c3nn(Cc4cc5ccccc5nc4-c4ccccc4F)c4ncnc(N)c34)ccc2[nH]1 [Compound 152],IC50,[2],< 100 nM
same,IC50,[3],< 100 nM
same,EC50,[4],100 to 1000 nM
same,IC50,[5],100 to 1000 nM
same,IC50,[6],> 1000 nM
Nc1ncnc2c1c(-c1cc(O)cc(F)c1)nn2Cc1cc2ccccc2nc1-c1ccccc1 [Compound 57],IC50,[2],< 100 nM
same,IC50,[3],< 100 nM
same,EC50,[4],< 100 nM
same,IC50,[5],100 to 1000 nM
same,IC50,[6],100 to 1000 nM
CC(c1cc2ccccc2nc1-c1ccccc1)n1nc(-c2cccc(O)c2)c2c(N)ncnc21 (centres unmarked) [Compound 59],IC50,[2],100 to 1000 nM
same,IC50,[3],< 100 nM
same,EC50,[4],< 100 nM
same,IC50,[5],> 1000 nM
same,IC50,[6],> 1000 nM
CC(=O)Nc1nc2ccc(-c3nn(Cc4cc5ccccc5nc4CCN4CCCC4)c4ncnc(N)c34)cc2s1 [Compound 166],IC50,[2],100 to 1000 nM
same,IC50,[3],< 100 nM
same,EC50,[4],< 100 nM
same,IC50,[5],100 to 1000 nM
same,IC50,[6],> 1000 nM
Nc1ncnc2c1c(-c1cccc(O)c1)nn2Cc1nc2ccccc2nc1N1CCCC1 [Compound 105],IC50,[2],100 to 1000 nM
same,IC50,[3],< 100 nM
same,EC50,[4],100 to 1000 nM
same,IC50,[5],> 1000 nM
same,IC50,[6],> 1000 nM
Nc1ncnc2c1c(-c1cc(O)cc(F)c1)nn2Cc1cc2ccccc2nc1NCCN1CCOCC1 [Compound 75],IC50,[2],> 1000 nM
same,IC50,[3],< 100 nM
same,EC50,[4],< 100 nM
same,IC50,[5],> 1000 nM
same,IC50,[6],> 1000 nM
Nc1ncnc2c1c(-c1cc(O)cc(F)c1)nn2Cc1cc2ccccc2nc1-c1cccnc1 [Compound 55],IC50,[2],100 to 1000 nM
same,IC50,[3],< 100 nM
same,EC50,[4],< 100 nM
same,IC50,[5],> 1000 nM
same,IC50,[6],> 1000 nM
Nc1ccc2cc(-c3nn(Cc4cc5ccccc5nc4N4CCOCC4)c4ncnc(N)c34)ccc2n1 [Compound 140],IC50,[2],< 100 nM
same,IC50,[3],< 100 nM
same,EC50,[4],< 100 nM
same,IC50,[5],< 100 nM
same,IC50,[6],100 to 1000 nM
CN1CCN(c2nc3ccccc3nc2Cn2nc(-c3ccc4nc(N)sc4c3)c3c(N)ncnc32)CC1 [Compound 199],IC50,[2],< 100 nM
same,IC50,[3],< 100 nM
same,EC50,[4],< 100 nM
same,IC50,[5],100 to 1000 nM
same,IC50,[6],< 100 nM
